Several values for one entry are separate records, joined by “and”; a condition that tells them apart may be missing. Identical values can stand only once. Counter-ions that a name gives are not always drawn.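 48-hour exposure; five concentrations; linearly interpolated endpoints. The concentration for 50% growth inhibition is given as GI50.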 Activity calls are given as the source filed them. Cut-off read from the data, not from the text of the source: active = GI50 up to about 1.1 µM and inactive = higher.
Legend:
Assay in all cases: NCI anticancer screen, dose series, 48 h
786-0 = test system: 786-0
A498 = test system: A498
A549 = test system: A549
BT-549 = test system: BT-549
CAKI-1 = test system: CAKI-1
Hs-578T = test system: Hs-578T
MDA-N = test system: MDA-N
NCI-H23 = test system: NCI-H23
NCI-H522 = test system: NCI-H522
SF-268 = test system: SF-268
SN12C = test system: SN12C
U-251 = test system: U-251
UACC-257 = test system: UACC-257
K562 = test system: K562
OVCAR-3 = test system: OVCAR-3
RXF 393 = test system: RXF 393
SF-295 = test system: SF-295
SK-OV-3 = test system: SK-OV-3
UO-31 = test system: UO-31
HCC 2998 = test system: HCC 2998

Measured: GI50

CCOP(=O)(OCC)C(N)c1ccc(Cl)cc1 (configuration not stated)
inactive: 786-0 > 100 µM | A498 > 100 µM | A549 > 100 µM | BT-549 > 100 µM | CAKI-1 > 100 µM | Hs-578T > 100 µM | MDA-N > 100 µM | NCI-H23 > 100 µM | NCI-H522 > 100 µM | SF-268 > 100 µM | SN12C > 100 µM | U-251 > 100 µM | UACC-257 > 100 µM

CC(C)c1ccc(C(O)(C(=O)O)c2ccc(C(C)C)cc2)cc1
inactive: 786-0 51.2 µM | A498 57.9 µM | A549 33.1 µM | BT-549 91.6 µM | CAKI-1 45.8 µM | Hs-578T 26.3 µM | K562 42.5 µM | MDA-N 70 µM | NCI-H23 42.1 µM | NCI-H522 34 µM | OVCAR-3 26.1 µM | RXF 393 61.9 µM | SF-268 33.7 µM | SF-295 26.7 µM | SK-OV-3 69.7 µM | SN12C 46 µM | U-251 18.2 µM | UACC-257 > 100 µM | UO-31 35.3 µM

Cc1ccc(O)c(-c2cc(-c3cccc(Br)c3)c(C#N)c(N)n2)c1
inactive: 786-0 34.4 µM | A549 27.6 µM | BT-549 37.2 µM | CAKI-1 21.8 µM | HCC 2998 23.3 µM | Hs-578T 25.5 µM | K562 21.8 µM | MDA-N 24.1 µM | NCI-H23 33.7 µM | NCI-H522 18.9 µM | OVCAR-3 27.6 µM | RXF 393 20.8 µM | SF-268 26.4 µM | SF-295 22.9 µM | SK-OV-3 31.9 µM | SN12C 21.5 µM | U-251 17.3 µM | UACC-257 20.8 µM | UO-31 20.4 µM

CC1Cc2c(cc(N)nc2Br)NC1=O (configuration not stated)
inactive: 786-0 > 100 µM | A549 63.7 µM | BT-549 92.9 µM | CAKI-1 > 100 µM | HCC 2998 > 100 µM | Hs-578T > 100 µM | K562 63.4 µM | MDA-N 46.1 µM | NCI-H23 > 100 µM | NCI-H522 > 100 µM | OVCAR-3 > 100 µM | RXF 393 81.8 µM | SF-268 > 100 µM | SF-295 > 100 µM | SK-OV-3 > 100 µM | SN12C > 100 µM | U-251 > 100 µM | UACC-257 > 100 µM | UO-31 > 100 µM

CN(C)CCCN1c2ccccc2Sc2ccc(C(F)(F)F)cc21 [TRIFLUPROMAZINE HYDROCHLORIDE]
inactive: 786-0 14.7 µM and 14.1 µM | A498 16.6 µM | A549 17 µM and 16.9 µM | BT-549 12.8 µM | CAKI-1 11.8 µM | Hs-578T 14.1 µM | K562 > 10 µM and 13.8 µM | MDA-N 13.4 µM | NCI-H23 18.3 µM and 16.5 µM | NCI-H522 17.9 µM and 18.1 µM | RXF 393 13 µM and 16 µM | SF-268 14 µM and 15 µM | SF-295 15.3 µM and 16.8 µM | SK-OV-3 18.6 µM and 16.6 µM | SN12C 16 µM and 17.3 µM | U-251 14.2 µM and 15.7 µM | UACC-257 13.5 µM and 15.3 µM | UO-31 15.5 µM and 14.3 µM

O=C(O)CCNc1ccccc1C(=O)O
inactive: 786-0 > 100 µM | A498 > 100 µM | A549 > 100 µM | BT-549 > 100 µM | CAKI-1 > 100 µM | Hs-578T > 100 µM | K562 > 100 µM | MDA-N > 100 µM | NCI-H23 > 100 µM | NCI-H522 > 100 µM | OVCAR-3 > 100 µM | RXF 393 > 100 µM | SF-268 > 100 µM | SF-295 > 100 µM | SK-OV-3 > 100 µM | SN12C > 100 µM | U-251 > 100 µM | UACC-257 > 100 µM | UO-31 > 100 µM

Reference: ChEMBL document CHEMBL1201862, “PubChem BioAssay data set” (2004)
